Entries after “also recorded” stand apart in the source; their conditions may differ.
How the values were obtained:
[1] = HbA1c in STZ-induced hyperglycemic mice; type: in vivo, mouse (male ICR); conditions: gavage daily, 57 days
Experimental: (§1) Male ICR mice at the age of four weeks were obtained from the Laboratory Animal Center of Zhejiang University (Hangzhou, China) and housed under a 12 h light/dark cycle with free access to food and water. The animal protocol was approved by the Committee on the Ethics of Animal Experiments of Zhejiang University (Permit Number: SYXK 2018-0001, 3 January 2018), and all experiments were performed in accordance with Zhejiang University Laboratory Animal Center Guidelines and the Regulations for Laboratory Animals Care and Usage. The mice were divided into four groups: non-STZ, STZ, STZ plus sitagliptin, and STZ plus peptide II. The mice were injected with STZ (50 mg/kg) dissolved into sodium citrate buffer (pH 4.5) for three successive days to induce hyperglycemia. Every group contained 10 mice. […] The levels of HbA1c were measured using an automatic analyzer MQ-2000pt produced by Medconn Medical Technology Co. (Shanghai, China). Plasma insulin, glucagon, GLP-1, and DPP-IV concentrations were measured using a mouse ELISA kit (Shanghai Lengton Bioscience Co., Ltd., Shanghai, China).

[2] = Plasma insulin in STZ-induced hyperglycemic mice; type: in vivo, mouse (male ICR); conditions: for Blood insulin level: peptide II 400 mg/kg (n = 7) or sitagliptin 4 mg/kg (n = 6), mouse ELISA, STZ control 9.79 ± 3.62 mU/L, mean ± SD
Experimental: as §1

pancreatic beta-cells = test: Islet beta-cell (insulin-positive) area and function in STZ-treated mice, immunohistochemistry; type: in vivo, mouse (male ICR); conditions: gavage daily; for Beta-cell area: peptide II 400 mg/kg (n = 7) or sitagliptin 4 mg/kg (n = 6), day 57, insulin-positive area per islet area
Experimental: as §1, with “pancreases” for “levels of HbA1c”, “resected immediately after the mice were sacrificed and fixed in 4% (w/v) formaldehyde. The immunohistochemistry procedures were performed according to Y. Takeda et al.. The stained sections were observed by an inverted fluorescence microscopy (NIKON ECLIPSE TI-SR; Nikon Corporation, Tokyo, Japan), and digital images were collected” for “measured”, “Nikon imaging system (NIKON DS-U3).” for “an automatic analyzer MQ-2000pt produced by Medconn Medical Technology Co. (Shanghai, China). Plasma insulin, glucagon, GLP-1, and DPP-IV concentrations were measured using a mouse ELISA kit (Shanghai Lengton Bioscience Co., Ltd., Shanghai, China).”

[3] = Plasma glucagon in STZ-induced hyperglycemic mice; type: in vivo, mouse (male ICR); conditions: peptide II 400 mg/kg or sitagliptin 4 mg/kg, gavage daily, day 57, vs STZ control
Experimental: as §1

[4] = Blood GLP-1 in STZ-induced hyperglycemic mice; type: in vivo, mouse (male ICR); conditions: gavage daily; for GLP-1 concentration vs STZ control, significance / GLP-1 concentration in blood: day 57; for GLP-1 concentration in blood: peptide II 400 mg/kg (n = 7) or sitagliptin 4 mg/kg (n = 6), mouse ELISA, STZ control 9.85 ± 1.96, normal control 15.52 ± 3.17 pmol/L, mean ± SD; for Increase in GLP-1 concentration vs STZ control: peptide II 400 mg/kg or sitagliptin 4 mg/kg, after 57 days
Experimental: as §1

pancreatic alpha-cells = test: Islet alpha-cell (glucagon-positive) area in STZ-treated mice, immunohistochemistry; type: in vivo, mouse (male ICR); conditions: gavage daily; for Alpha-cell area / proliferation: peptide II 400 mg/kg (n = 7) or sitagliptin 4 mg/kg (n = 6), day 57, vs STZ control
Experimental: as §1, with “pancreases” for “levels of HbA1c”, “resected immediately after the mice were sacrificed and fixed in 4% (w/v) formaldehyde. The immunohistochemistry procedures were performed according to Y. Takeda et al.. The stained sections were observed by an inverted fluorescence microscopy (NIKON ECLIPSE TI-SR; Nikon Corporation, Tokyo, Japan), and digital images were collected” for “measured”, “Nikon imaging system (NIKON DS-U3).” for “an automatic analyzer MQ-2000pt produced by Medconn Medical Technology Co. (Shanghai, China). Plasma insulin, glucagon, GLP-1, and DPP-IV concentrations were measured using a mouse ELISA kit (Shanghai Lengton Bioscience Co., Ltd., Shanghai, China).”

DPP-IV [5] = biological target: T1, DPP-IV (Homo sapiens, UniProt P27487); test: DPP-IV inhibitory assay (Gly-Pro p-nitroanilide); type: biochemical; conditions: n = 3; for DPP-IV inhibition, comparison among peptides I-IV: 62.5-1500 μg/mL
T1 construct: purchased Sigma-Aldrich D4943-1VL; host or cells: baculovirus-infected Sf9 insect cells
Text: The enzyme, human recombinant DPP-IV (Lot: D4943-1VL), expressed in baculovirus-infected S/9 cells, the substrate, Gly-Pro p-nitroanilide (Gly-Pro pNA; Lot: G0513), and streptozotocin (STZ; Lot: V900890) were purchased from Sigma-Aldrich (St. Louis, MO, USA). […] Other reagents, such as Folin–Ciocalteu (Lot: 73104861), gallic acid (Lot: XW01499171), and Coomassie Blue R-250 (Lot: 71011381) were purchased from Sinopharm Chemical Reagent Co., Ltd. (Shanghai, China). Lapsang souchon (LS), a typical Chinese black tea, was obtained from a tea market in Hangzhou.
The DPP-IV inhibitory activities of the substance after ultrafiltration and the peptides identified (synthesized by Chinese Peptide Company, Hangzhou, China; purity of 96–97%) were evaluated. The DPP-IV inhibition assay was performed as described by Velarde-Salcedo et al., with slight modifications. The assay was performed in 96-well microplates, and 100 μL of enzyme (final concentration 1.9 U/L) was preincubated with the samples (the concentrated ultra-filtrate mentioned above and the synthesized peptide, with concentrations from 62.5–1500 μg/mL) at 37 °C for 15 min prior to the initiation of the reaction, by adding 50 μL of Gly-Pro p-nitroanilide (final concentration 0.29 mM). The final volume of the reaction system was 200 μL, and the reaction was conducted in 100 mM Tris-HCl buffer (pH 7.6). The absorbance was obtained at 405 nm in a microplate reader (Synergy H1, BioTek Instruments Inc., Winooski, VT, USA), after incubation at 37 °C for 1 h.

DPP-IV [6] = biological target: T1, DPP-IV; test: Enzyme kinetics, Lineweaver-Burk plot, mode of inhibition; type: biochemical; conditions: peptide II 0, 1.02 and 2.04 mM; Gly-Pro pNA 0.29-4.64 mM; Tris-HCl pH 7.6, 37 °C, 60 min, 405 nm
Experimental: The initial rate of hydrolysis of the substrate Gly-Pro p-nitroanilide by DPP-IV was measured using substrate concentrations of 0.29, 0.58, 1.16, 2.32, and 4.64 mM (final assay concentrations) in the absence (100 mM Tris-HCl buffer, pH 7.6) and presence of different concentrations of the peptide II (1.02 and 2.04 mM, respectively). The substrate (50 μL), with or without an inhibitor (50 μL), was pre-incubated at 37 °C for 15 min, and the reaction was started by the addition of 100 μL of the DPP-IV enzyme (final concentration: 1.9 U/L). The absorbance of the released p-nitroanilide was monitored at 37 °C and 405 nm for 60 min using a microplate reader (Synergy H1, BioTek Instruments Inc.). Lineweaver–Burk plots of DPP-IV activity in the absence and presence of peptide II were created to show the modes of inhibition.

T1 sequence (P27487 whole entry): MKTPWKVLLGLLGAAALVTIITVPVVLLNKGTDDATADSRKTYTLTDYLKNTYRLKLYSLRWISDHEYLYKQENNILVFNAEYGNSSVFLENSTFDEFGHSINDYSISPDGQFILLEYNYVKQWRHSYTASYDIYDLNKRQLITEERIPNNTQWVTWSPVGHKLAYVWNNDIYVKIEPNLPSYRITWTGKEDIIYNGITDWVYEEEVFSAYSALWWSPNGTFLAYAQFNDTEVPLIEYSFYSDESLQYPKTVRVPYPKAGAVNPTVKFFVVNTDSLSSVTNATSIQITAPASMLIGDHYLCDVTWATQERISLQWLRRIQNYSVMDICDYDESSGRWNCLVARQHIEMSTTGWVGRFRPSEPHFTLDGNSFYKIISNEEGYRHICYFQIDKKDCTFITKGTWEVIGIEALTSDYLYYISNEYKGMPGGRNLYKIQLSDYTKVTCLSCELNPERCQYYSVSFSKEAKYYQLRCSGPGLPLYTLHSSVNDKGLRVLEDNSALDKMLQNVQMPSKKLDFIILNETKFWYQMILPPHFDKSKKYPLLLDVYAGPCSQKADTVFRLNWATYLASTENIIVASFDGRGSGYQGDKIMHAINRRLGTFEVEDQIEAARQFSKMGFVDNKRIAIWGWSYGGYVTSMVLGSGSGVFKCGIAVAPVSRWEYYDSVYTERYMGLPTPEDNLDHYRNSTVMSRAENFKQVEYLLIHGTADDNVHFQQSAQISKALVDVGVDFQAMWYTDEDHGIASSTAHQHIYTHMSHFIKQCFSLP

Compound: N[C@@H](CC(=O)N1CCn2c(nnc2C(F)(F)F)C1)Cc1cc(F)c(F)cc1F [sitagliptin, reference compound]
- HbA1c level ([1]; sitagliptin 4 mg/kg, n = 6, STZ control 7.30 ± 0.70%, mean ± SD): 5.98 ± 1.63%
- Blood insulin level ([2]; gavage daily, day 57): 27.35 ± 5.65 mU/L
- Beta-cell area (pancreatic beta-cells): not obvious
- Plasma glucagon levels [3]: no amelioration of the glucagon levels
- GLP-1 concentration vs STZ control, significance [4]: without any significant difference compared with the STZ control
- GLP-1 concentration in blood [4]: 12.57 ± 3.38 pmol/L
- Increase in GLP-1 concentration vs STZ control [4]: 2.7 pmol/L
- Alpha-cell area / proliferation (pancreatic alpha-cells): suppressed
- Decrease of alpha-cell area vs STZ-treated mice (pancreatic alpha-cells; sitagliptin 4 mg/kg, day 57, glucagon-positive area per islet area, n = 6): 37.8%

Compound: AGFAGDDAPR [Peptide II]
- HbA1c level vs STZ control ([1]; peptide II 400 mg/kg, n = 7): did not show a significant difference in HbA1c levels compared to STZ control animals
- Blood insulin level ([2]; gavage daily, day 57): 42.30 ± 12.64 mU/L
- Increase of plasma insulin level vs STZ control ([2]; peptide II 400 mg/kg or sitagliptin 4 mg/kg, gavage daily, 57 days): 4.3 fold
- Insulin improvement compared with sitagliptin ([2]; peptide II 400 mg/kg vs sitagliptin 4 mg/kg, day 57): improved the insulin levels more effectively than sitagliptin
- Beta-cell area (pancreatic beta-cells): not obvious
- Beta-cell proliferation / function (pancreatic beta-cells; peptide II 400 mg/kg, 57 days): improved function of pancreatic beta-cells; also recorded: only slight proliferation
- DPP-IV enzyme activity inhibited (DPP-IV [5]; 1000 μg/mL synthesized peptide, Tris-HCl pH 7.6, 37 °C, preincubation 15 min, 1 h, 405 nm): ~50%
- DPP-IV inhibition, comparison among peptides I-IV (DPP-IV [5]): much higher inhibitory activity at both low and high concentrations; also recorded: the greatest DPP-IV inhibitory activity
- Mode of DPP-IV inhibition (DPP-IV [6]): competitive inhibitory mode
- Plasma glucagon levels [3]: no amelioration of the glucagon levels
- GLP-1 concentration vs STZ control, significance [4]: significantly higher than that in STZ control
- GLP-1 concentration in blood [4]: 19.22 ± 6.79 pmol/L
- Increase in GLP-1 concentration vs STZ control [4]: 9.3 pmol/L
- Alpha-cell area / proliferation (pancreatic alpha-cells): suppressed proliferation of pancreatic alpha-cells; also recorded: lower than that in the STZ control group, but not significantly

Compound: IDESLR [Peptide III]
- DPP-IV inhibition (DPP-IV [5]; 1500 μg/mL, compared among peptides I-IV): the lowest activity
- DPP-IV inhibition (DPP-IV [5]; concentration below 1000 μg/mL): almost no inhibition

Compound: IQDKEGIPPDQQR [IV]
- DPP-IV inhibition, comparison among peptides I-IV (DPP-IV [5]): surpassed by peptide II with increasing concentration

Compound: QTDEYGNPPR [Peptide I]
- DPP-IV inhibition, comparison among peptides I-IV (DPP-IV [5]): lower than peptide IV, but higher than peptide III

Source: publication PMC6359713, “A Novel Dipeptidyl Peptidase IV Inhibitory Tea Peptide Improves Pancreatic β-Cell Function and Reduces α-Cell Proliferation in Streptozotocin-Induced Diabetic Mice” (International Journal of Molecular Sciences, 2019)
